Reference: patent US20250213532A1, “5-METHOXY-N,N-[…][…] THE TREATMENT OF BIPOLAR DISORDER” (GH RESEARCH IRELAND LIMITED, priority 2022, published 2025)

How the values were obtained:
[1] = tested on: Escherichia coli WP2 uvrA pKM101; experiment: Bacterial mutation test, Escherichia coli; format: cell-based; settings: up to 5000 pg/plate; absence and presence of rat liver S-9
From the text: (§1) These conditions included treatments at concentrations up to […] (the maximum recommended concentration according to current regulatory guidelines), in the absence and in the presence of a rat liver metabolic activation system (S-9).

[2] = tested on: patients with treatment-resistant major depressive disorder (TRD); experiment: Phase 1/2 clinical trial of inhaled 5-MeO-DMT in TRD: MADRS; format: in vivo, human
Experimental: When assessing a clinical response at an early timepoint after drug administration (e.g. at 2 hours) based on endpoints which have been developed for a longer recall period (e.g. normally 7 days for the MADRS), a rational modification of such endpoint (e.g. changing the MADRS recall period to 2 hours and carrying forward the sleep item recorded at baseline before drug administration) may be applied. The same applies with respect to the BDRS (in particular the item sleep disturbance) and any other scale applied herein, unless a recall period is specifically indicated.
The Montgomery-Asberg Depression Rating Scale (MADRS) is a ten-item diagnostic questionnaire used to measure the severity of depressive episodes in patients with mood disorders (Montgomery, S. A., & Asberg, M. (1979). A new depression scale designed to be sensitive to change. The British Journal of Psychiatry 134, p.382). It was designed as an adjunct to the Hamilton Rating Scale for Depression (HAM-D), which would be more sensitive to the changes brought on by antidepressants and other forms of treatment. Higher MADRS score indicates more severe depression. The items considered are apparent sadness; reported sadness; inner tension; reduced sleep; reduced appetite; concentration difficulties; lassitude; inability to feel; pessimistic thoughts; and suicidal thoughts, and each item yields a score of 0 to 6. The overall score ranges from 0 to 60. Score ranges used herein for assessing the severity of depressive episodes in patients with bipolar disorder are 13-18 for “mildly ill”, 19-23 for “moderately ill”, 24-36 for “markedly ill”, 37-39 for “severely ill”, and 40 for “extremely ill” (Thase, 2021).
Patients were assigned to different groups.
This trial was designed in two parts.

[3] = Acute psychedelic effects after inhalation; design: species or system human; settings: in vivo
[4] = tested on: Salmonella typhimurium TA98, TA100, TA1535 and TA1537; experiment: Bacterial mutation test, Salmonella typhimurium; format: cell-based; settings: up to 5000 µg/plate; absence and presence of rat liver S-9
From the text: as §1

[5] = Pharmacokinetics after single inhaled dose (LC-MS/MS); format: in vivo, human
Experimental: Blood samples were obtained at 1; 2; 4; 7; 10; 15; 20; 30; 45 min and 1; 1.5; 2; 3; 4 hours after administration.
PK parameters were generated by algebraic analysis of the concentration versus time plots for each individual. The analysis was carried out using the software Phoenix WinNonlin 6.3.

[6] = tested on: patients with clinically diagnosed postpartum depression (PPD); experiment: Clinical trial in postpartum depression: safety and tolerability; format: in vivo, human; settings: one PPD patient
From the text: The patient completed all planned visit days.

[7] = 12 mg n=4, 2 hours, baseline 13
[8] = 12 mg n=4, 2 hours, baseline 16

For `COc1ccc2[nH]cc(CCN(C)C)c2c1` [5-MeO-DMT], the Induction of mutation [1] was “did not induce mutation”, the “MADRS Suicidal Thoughts percentage improvement” value ([2]; 12 mg n=4, 2 hours, baseline 8) was 63% and the “MADRS Suicidal Thoughts score (sum)” value ([2]; 12 mg n=4, 2 hours, baseline 8) was 3. For the same molecule, the “MADRS Inner Tension percentage improvement” value [2, 7] was 85%, the “MADRS Inner Tension score (sum)” value [2, 7] was 2 and the “MADRS Concentration Difficulties percentage improvement” value [2, 8] was 56%. The “MADRS Concentration Difficulties score (sum)” value [2, 8] was 7, the “MADRS Inability to Feel percentage improvement” value [2, 8] was 44% and the “MADRS Inability to Feel score (sum)” value [2, 8] was 9. For the same molecule, the “MADRS Lassitude percentage improvement” value [2, 8] was 38%, the “MADRS Lassitude score (sum)” value [2, 8] was 10 and the “MADRS Pessimistic Thoughts percentage improvement” value [2, 8] was 50%. The “MADRS Pessimistic Thoughts score (sum)” value [2, 8] was 8, the “MADRS Suicidal Thoughts score (sum)” value ([2]; 12 mg n=4, Day 1, baseline 8) was 5 and the “MADRS Reduced Sleep score (sum)” value ([2]; 12 mg n=4, Day 1, baseline 12) was 10. The “MADRS Inner Tension percentage improvement” value ([2]; 12 mg n=4, Day 1, baseline 13) was 77%, the “MADRS Inner Tension score (sum)” value ([2]; 12 mg n=4, Day 1, baseline 13) was 3 and the “MADRS Concentration Difficulties percentage improvement” value ([2]; 12 mg n=4, Day 1, baseline 16) was 88%. The “MADRS Concentration Difficulties score (sum)” value ([2]; 12 mg n=4, Day 1, baseline 16) was 2, the “MADRS Inability to Feel score (sum)” value ([2]; 12 mg n=4, Day 1, baseline 16) was 1 and the “MADRS Lassitude percentage improvement” value ([2]; 12 mg n=4, Day 1, baseline 16) was 100%. For the same molecule, the “MADRS Lassitude score (sum)” value ([2]; 12 mg n=4, Day 1, baseline 16) was 0, the “MADRS Pessimistic Thoughts percentage improvement” value ([2]; 12 mg n=4, Day 1, baseline 16) was 56% and the “MADRS Pessimistic Thoughts score (sum)” value ([2]; 12 mg n=4, Day 1, baseline 16) was 7. The “MADRS Suicidal Thoughts score (sum)” value ([2]; 12 mg n=4, Day 7, baseline 8) was 7, the “MADRS Reduced Sleep score (sum)” value ([2]; 12 mg n=4, Day 7, baseline 12) was 6 and the “MADRS Inner Tension percentage improvement” value ([2]; 12 mg n=4, Day 7, baseline 13) was 62%. The “MADRS Inner Tension score (sum)” value ([2]; 12 mg n=4, Day 7, baseline 13) was 5, the “MADRS Concentration Difficulties percentage improvement” value ([2]; 12 mg n=4, Day 7, baseline 16) was 81% and the “MADRS Concentration Difficulties score (sum)” value ([2]; 12 mg n=4, Day 7, baseline 16) was 3. The “MADRS Inability to Feel score (sum)” value ([2]; 12 mg n=4, Day 7, baseline 16) was 1, the “MADRS Lassitude percentage improvement” value ([2]; 12 mg n=4, Day 7, baseline 16) was 81% and the “MADRS Lassitude score (sum)” value ([2]; 12 mg n=4, Day 7, baseline 16) was 3. The “MADRS Pessimistic Thoughts percentage improvement” value ([2]; 12 mg n=4, Day 7, baseline 16) was 50%, the “MADRS Pessimistic Thoughts score (sum)” value ([2]; 12 mg n=4, Day 7, baseline 16) was 8 and the “MADRS Suicidal Thoughts percentage improvement” value ([2]; IDR n=8, 2 hours, baseline 11) was 73%. For the same molecule, the “MADRS Suicidal Thoughts score (sum)” value ([2]; IDR n=8, 2 hours, baseline 11) was 3, the “MADRS Inner Tension percentage improvement” value ([2]; IDR n=8, 2 hours, baseline 26) was 58% and the “MADRS Inner Tension score (sum)” value ([2]; IDR n=8, 2 hours, baseline 26) was 11. For the same molecule, the “MADRS Lassitude percentage improvement” value ([2]; IDR n=8, 2 hours, baseline 27) was 63%, the “MADRS Lassitude score (sum)” value ([2]; IDR n=8, 2 hours, baseline 27) was 10 and the “MADRS Pessimistic Thoughts percentage improvement” value ([2]; IDR n=8, 2 hours, baseline 28) was 75%. The “MADRS Pessimistic Thoughts score (sum)” value ([2]; IDR n=8, 2 hours, baseline 28) was 7, the “MADRS Concentration Difficulties percentage improvement” value ([2]; IDR n=8, 2 hours, baseline 30) was 63% and the “MADRS Concentration Difficulties score (sum)” value ([2]; IDR n=8, 2 hours, baseline 30) was 11. The “MADRS Inability to Feel percentage improvement” value ([2]; IDR n=8, 2 hours, baseline 36) was 67%, the “MADRS Inability to Feel score (sum)” value ([2]; IDR n=8, 2 hours, baseline 36) was 12 and the “MADRS Suicidal Thoughts score (sum)” value ([2]; IDR n=8, Day 1, baseline 11) was 1. For the same molecule, the “MADRS Reduced Sleep score (sum)” value ([2]; IDR n=8, Day 1, baseline 25) was 12, the “MADRS Inner Tension percentage improvement” value ([2]; IDR n=8, Day 1, baseline 26) was 77% and the “MADRS Inner Tension score (sum)” value ([2]; IDR n=8, Day 1, baseline 26) was 6. The “MADRS Lassitude percentage improvement” value ([2]; IDR n=8, Day 1, baseline 27) was 81%, the “MADRS Lassitude score (sum)” value ([2]; IDR n=8, Day 1, baseline 27) was 5 and the “MADRS Pessimistic Thoughts percentage improvement” value ([2]; IDR n=8, Day 1, baseline 28) was 86%. For the same molecule, the “MADRS Pessimistic Thoughts score (sum)” value ([2]; IDR n=8, Day 1, baseline 28) was 4, the “MADRS Concentration Difficulties percentage improvement” value ([2]; IDR n=8, Day 1, baseline 30) was 97% and the “MADRS Concentration Difficulties score (sum)” value ([2]; IDR n=8, Day 1, baseline 30) was 1. For the same molecule, the “MADRS Inability to Feel score (sum)” value ([2]; IDR n=8, Day 1, baseline 36) was 2, the “MADRS Suicidal Thoughts score (sum)” value ([2]; IDR n=8, Day 7, baseline 11) was 3 and the “MADRS Reduced Sleep score (sum)” value ([2]; IDR n=8, Day 7, baseline 25) was 9. The “MADRS Inner Tension percentage improvement” value ([2]; IDR n=8, Day 7, baseline 26) was 54%, the “MADRS Inner Tension score (sum)” value ([2]; IDR n=8, Day 7, baseline 26) was 12 and the “MADRS Lassitude percentage improvement” value ([2]; IDR n=8, Day 7, baseline 27) was 89%. The “MADRS Lassitude score (sum)” value ([2]; IDR n=8, Day 7, baseline 27) was 3, the “MADRS Pessimistic Thoughts percentage improvement” value ([2]; IDR n=8, Day 7, baseline 28) was 89% and the “MADRS Pessimistic Thoughts score (sum)” value ([2]; IDR n=8, Day 7, baseline 28) was 3. The “MADRS Concentration Difficulties percentage improvement” value ([2]; IDR n=8, Day 7, baseline 30) was 70%, the “MADRS Concentration Difficulties score (sum)” value ([2]; IDR n=8, Day 7, baseline 30) was 9 and the “MADRS Inability to Feel score (sum)” value ([2]; IDR n=8, Day 7, baseline 36) was 6. For the same molecule, the Onset of effect [3] was “merely seconds”, the Induction of mutation [4] was “did not induce mutation” and the “Pharmacokinetics under uptitration dosing schemes vs single dose” value ([5]; dosing schemes relying on uptitration) was “Substantially similar results”. For the same molecule, the “Accumulation upon repeated administration” value ([5]; repeated administration within a time frame of 1 to 4 hours) was “No accumulation”, the “Tolerability of inhalation procedure” value [6] was “well tolerated with no inhalation-related adverse events” and the “Adverse events (cramping left abdominal pain and headache)” value ([6]; Day 0) was “mild, short-lasting and resolved spontaneously”. For the same molecule, the “ECG, safety laboratory analyses, CADSS” value ([6]; ECG 3 hours, laboratory 7 days, CADSS 3 hours, 1 day, 7 days) was “unremarkable”.
